Measured values: US10570155B2, “Imidazooxazole derivative having antitumor effect, and pharmaceutical composition including same” (KOREA INSTITUTE OF SCIENCE AND TECHNOLOGY, priority 2016, dated 2020)
pIC50: −log10 of the molar value.

Experiments:
A375 = assay: NCI cancer cell line panel screening (SRB), melanoma cell line A375; assay type: cell-based; conditions: Homo sapiens, A-375, read-out: IC50 against melanoma cell line in vitro
Experimental: (§1) According to the standard protocol (http://dtp.nci.nih.gov/dtpstandard/dwindex/index.isp) of the US National Cancer Institute (NCI) (www.dtp.nci.nih.gov), screening of a cancer cell line panel was performed. Briefly, human cell lines were allowed to grow in an RPMI 1640 medium containing 5% FBS and 2 mM L-glutamine. For a general screening experiment, cells were inoculated in 96-well microtiter plates in 100 μl at a plating density ranging from 5000 cells/well to 40,000 cells/well depending on the doubling time of individual cell lines. After cell inoculation, the microtiter plates were incubated at 37° C., 5% CO2, 95% air, and 100% relative humidity for 24 hours prior to addition of test compounds. 24 hours later, two plates of each cell line were fixed in situ with trichloroacetic acid (TCA) to measure the cell population for each cell line at the time of test compound addition (Tz). Test compounds were solubilized in dimethyl sulfoxide at 400-fold the intended final maximum test concentration, and stored frozen prior to use. At the time of compound addition, an aliquot of frozen concentrate was thawed and diluted to twice the intended final maximum test concentration with a complete medium containing 50 μg/ml of gentamicin. Additional four concentration of 10-fold or ½ log serial dilutions were made to provide a total of five compound concentrations plus control. Aliquots of 100 μl of these different compound dilutions were added to appropriate microtiter wells already containing 100 μl of medium, resulting in the required final compound concentrations.
(§2) Following compound addition, the plates were incubated for additional 48 hours at 37° C., 5% CO2, 95% air, and 100% relative humidity. For adherent cells, the assay was terminated by the addition of cold TCA. Cells were fixed in situ by the gentle addition of 50 μl of cold 50% (w/v) TCA (final concentration, 10% TAC) and incubated at 4° C. for 60 minutes. The supernatant was discarded, and the plates were washed five times with tap water and air-dried. A sulforhodamine B (SRB) solution (100 μl) at 0.4% (w/v) in 1% acetic acid was added to each well, and plates were incubated at room temperature for 10 minutes. After staining, unbound dye was removed by washing five times with 1% acetic acid and the plates were air-dried. Bound stain was subsequently solubilized with 10 mM Trizma base, and the absorbance was read on an automated plate reader at a wavelength of 515 nm. For suspension cells, the methodology was the same except that the assay was terminated by fixing settled cells at the bottom of the wells by gently adding 50 μl of 80% TCA (final concentration, 16% TCA). Using the seven absorbance measurements [time zero (Tz), control growth (C), and test growth rate in the presence of compound at the five concentration levels (Ti)], the growth percentage was calculated at each of the compound concentration levels. Growth inhibition percentage was calculated as follows: [(Ti−Tz)/(C−Tz)]×100 for concentrations for which Ti>/=Tz [(Ti−Tz)/Tz]×100 for concentrations for which Ti<Tz.

B-RAF = B-RAF (Homo sapiens (Human), UniProt P15056); assay: Protein kinase enzymatic activity (Reaction Biology kinase hotspot, 33P-ATP); assay type: biochemical; conditions: read-out: Inhibitory effect against kinase activity, B-RAF (IC50)
B-RAF, sequence (P15056 whole entry): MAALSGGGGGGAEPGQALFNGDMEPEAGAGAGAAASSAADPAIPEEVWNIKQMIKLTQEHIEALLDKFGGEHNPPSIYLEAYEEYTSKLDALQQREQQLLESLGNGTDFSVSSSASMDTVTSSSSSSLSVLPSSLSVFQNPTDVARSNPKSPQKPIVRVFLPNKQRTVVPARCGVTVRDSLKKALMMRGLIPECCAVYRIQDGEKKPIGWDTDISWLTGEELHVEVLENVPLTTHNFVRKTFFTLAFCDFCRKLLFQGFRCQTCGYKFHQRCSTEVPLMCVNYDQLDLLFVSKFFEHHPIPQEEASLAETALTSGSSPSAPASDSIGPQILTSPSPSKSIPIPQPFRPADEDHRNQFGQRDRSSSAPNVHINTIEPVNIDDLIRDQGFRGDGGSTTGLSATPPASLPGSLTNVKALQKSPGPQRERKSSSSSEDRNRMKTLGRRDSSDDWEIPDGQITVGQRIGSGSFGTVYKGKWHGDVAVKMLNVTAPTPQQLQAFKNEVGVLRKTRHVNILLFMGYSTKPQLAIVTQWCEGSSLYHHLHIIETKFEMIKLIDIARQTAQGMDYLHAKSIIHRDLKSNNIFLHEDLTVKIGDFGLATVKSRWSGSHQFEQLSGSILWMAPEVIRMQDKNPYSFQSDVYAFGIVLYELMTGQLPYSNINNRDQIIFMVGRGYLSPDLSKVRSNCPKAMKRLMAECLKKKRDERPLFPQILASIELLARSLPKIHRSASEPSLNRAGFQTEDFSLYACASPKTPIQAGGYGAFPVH
Experimental: (§3) Reaction biology kinase hotspot service (http://www.reactionbiology.com) was used to measure IC50. In a final reaction volume of 25 μL, kinase (5 mU to 10 mU) was incubated with 25 mM Tris (pH 7.5), 0.02 mM EGTA, 0.66 mg/ml of myelin basic protein, 10 mM magnesium acetate, and [^33P-ATP] (specific activity of about 500 CPM/pmol, concentration as required). The reaction was initiated by addition of Mg-ATP mix. After incubation for 40 min at room temperature, the reaction was stopped by addition of 5 μl of a 3% phosphoric acid solution. 10 μL of the reaction was then spotted onto a P30 filtermat and washed three times for 5 minutes in 75 mM phosphoric acid and once in methanol prior to drying and scintillation counting.

C-RAF = C-RAF (Homo sapiens (Human), UniProt P04049, Y340D/Y341D); assay: as above; assay type: biochemical; conditions: read-out: Inhibitory effect against kinase activity, C-RAF (IC50)
C-RAF, sequence (P04049 306-648 Y340D/Y341D limits assumed): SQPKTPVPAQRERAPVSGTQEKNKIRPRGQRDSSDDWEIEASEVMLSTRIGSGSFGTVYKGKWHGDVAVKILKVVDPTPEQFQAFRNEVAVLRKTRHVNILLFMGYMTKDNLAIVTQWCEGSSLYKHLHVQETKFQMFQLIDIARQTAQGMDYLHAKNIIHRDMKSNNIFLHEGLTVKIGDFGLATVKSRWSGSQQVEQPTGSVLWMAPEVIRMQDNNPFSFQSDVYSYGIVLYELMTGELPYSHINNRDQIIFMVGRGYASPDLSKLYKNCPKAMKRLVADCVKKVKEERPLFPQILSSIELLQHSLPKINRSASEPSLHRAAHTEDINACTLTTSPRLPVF
Experimental: as §3

V600E-B-RAF = V600E-B-RAF (Homo sapiens (Human), UniProt P15056, V600E); assay: as above; assay type: biochemical; conditions: read-out: Inhibitory effect against kinase activity, V600E-B-RAF (IC50)
V600E-B-RAF, sequence (P15056 whole entry V600E): as the sequence (P15056 whole entry) above, with V600E counted along it
Experimental: as §3

UACC-62 = assay: NCI cancer cell line panel screening (SRB), melanoma cell line UACC-62; assay type: cell-based; conditions: Homo sapiens, read-out: IC50 against melanoma cell line in vitro
Experimental: as §1, §2

M14 = assay: NCI cancer cell line panel screening (SRB), melanoma cell line M14; assay type: cell-based; conditions: Homo sapiens, read-out: IC50 against melanoma cell line in vitro
Experimental: as §1, §2

SK-MEL-28 = assay: NCI cancer cell line panel screening (SRB), melanoma cell line SK-MEL-28; assay type: cell-based, human; conditions: Homo sapiens, read-out: IC50 against melanoma cell line in vitro
Experimental: as §1, with “Briefly, human cell lines were allowed to grow in an RPMI 1640 medium containing 5% FBS and 2 mM L-glutamine.” left out
as §2, with “Bound stain was subsequently solubilized with 10 mM Trizma base, and the absorbance was read on an automated plate reader at a wavelength of 515 nm.” left out

LOX IMVI = assay: NCI cancer cell line panel screening (SRB), melanoma cell line LOX IMVI; assay type: cell-based, human; conditions: Homo sapiens, read-out: IC50 against melanoma cell line in vitro
Experimental: as §1, with “Briefly, human cell lines were allowed to grow in an RPMI 1640 medium containing 5% FBS and 2 mM L-glutamine.” left out
as §2, with “Bound stain was subsequently solubilized with 10 mM Trizma base, and the absorbance was read on an automated plate reader at a wavelength of 515 nm.” left out

SK-MEL-2 = assay: NCI cancer cell line panel screening (SRB), melanoma cell line SK-MEL-2; assay type: cell-based, human; conditions: Homo sapiens, read-out: IC50 against melanoma cell line in vitro
Experimental: as §1, with “Briefly, human cell lines were allowed to grow in an RPMI 1640 medium containing 5% FBS and 2 mM L-glutamine.” left out
as §2, with “Bound stain was subsequently solubilized with 10 mM Trizma base, and the absorbance was read on an automated plate reader at a wavelength of 515 nm.” left out

SK-MEL-5 = assay: NCI cancer cell line panel screening (SRB), melanoma cell line SK-MEL-5; assay type: cell-based, human; conditions: Homo sapiens, read-out: IC50 against melanoma cell line in vitro
Experimental: as §1, with “Briefly, human cell lines were allowed to grow in an RPMI 1640 medium containing 5% FBS and 2 mM L-glutamine.” left out
as §2, with “Bound stain was subsequently solubilized with 10 mM Trizma base, and the absorbance was read on an automated plate reader at a wavelength of 515 nm.” left out

MDA-MB-435 = assay: NCI cancer cell line panel screening (SRB), melanoma cell line MDA-MB-435; assay type: cell-based; conditions: Homo sapiens, read-out: IC50 against melanoma cell line in vitro
Experimental: as §1, §2

SMILES | pIC50 (A375) | pIC50 (B-RAF) | pIC50 (C-RAF) | pIC50 (V600E-B-RAF) | pIC50 (UACC-62) | pIC50 (M14) | pIC50 (SK-MEL-28) | pIC50 (LOX IMVI) | pIC50 (SK-MEL-2) | pIC50 (SK-MEL-5) | pIC50 (MDA-MB-435)
CN1CCN(CCNc2nccc(-c3c(-c4cccc(O)c4)nc4occn34)n2)S1(=O)=O [1II, 2-(2-((4-(6-(3-Hydroxylphenyl)imidazo[2,1-b]oxazol-5-yl)pyrimidin-2-yl)amino)ethyl)-5-methyl-1,2,5-thiadiazolidine 1,1-dioxide] | 7.22 | 8.49 | 8.53 | 8.73 | – | – | – | – | – | – | –
O=S(=O)(NCCCNc1nccc(-c2c(-c3cccc(O)c3)nc3sccn23)n1)c1ccc(F)cc1 [31III, 4-fluoro-N-(3-((4-(6-(3-hydroxylphenyl)imidazo[2,1-b]thiazol-5-yl)pyrimidin-2-yl)amino)propyl)benzenesulfonamide] | 6.52 | 8.38 | 8.11 | 9.01 | 7.70 | 7.22 | 7.30 | 6.25 | 5.96 | 5.92 | 6.62
